Reference: ChEMBL document CHEMBL4665787, “Bifunctional and Unusual Amino Acid β- or γ-Ester Prodrugs of Nucleoside Analogues for Improved Affinity to ATB and Enhanced Metabolic Stability: An Application to Floxuridine” (J Med Chem, 2020)
The source made the active and inactive calls. No cut-off for these calls is given here.

What was measured:
[1] = Half life of compound in human ZR-75-1 cell homogenate; format: ADME, tissue-based
[2] = Toxicity in NOD SCID nude mouse xenografted with human MDA-MB-231 cells assessed as body weight at 90 mg/kg, iv for 20 days (reference value: 30.1 +/- 4.1g); format: organism-based; settings: in vivo, 480 h, time 20 day
ZR-75-1 = assay: Antitumour activity against human ZR-75-1 cells xenografted in NOD SCID nude mouse assessed as tumour inhibition at 90 mg/kg, iv administered for 20 days measured every 2 day by caliper method relative to control; format: functional; settings: ZR-75-1, iv, 480 h, time 20 day
[3] = target: T1, Sodium- and chloride-dependent neutral and basic amino acid transporter B(0+) (Homo sapiens, UniProt Q9UN76); assay: Substrate activity at SLC6A14 (unknown origin) expressed in Xenopus laevis oocytes assessed as ABT0+ mediated drug uptake at 0.5 mM incubated for 10 mins by HPLC analysis; format: ADME, cell-based; settings: oocyte, 500 µM
T1 sequence (Q9UN76 whole entry): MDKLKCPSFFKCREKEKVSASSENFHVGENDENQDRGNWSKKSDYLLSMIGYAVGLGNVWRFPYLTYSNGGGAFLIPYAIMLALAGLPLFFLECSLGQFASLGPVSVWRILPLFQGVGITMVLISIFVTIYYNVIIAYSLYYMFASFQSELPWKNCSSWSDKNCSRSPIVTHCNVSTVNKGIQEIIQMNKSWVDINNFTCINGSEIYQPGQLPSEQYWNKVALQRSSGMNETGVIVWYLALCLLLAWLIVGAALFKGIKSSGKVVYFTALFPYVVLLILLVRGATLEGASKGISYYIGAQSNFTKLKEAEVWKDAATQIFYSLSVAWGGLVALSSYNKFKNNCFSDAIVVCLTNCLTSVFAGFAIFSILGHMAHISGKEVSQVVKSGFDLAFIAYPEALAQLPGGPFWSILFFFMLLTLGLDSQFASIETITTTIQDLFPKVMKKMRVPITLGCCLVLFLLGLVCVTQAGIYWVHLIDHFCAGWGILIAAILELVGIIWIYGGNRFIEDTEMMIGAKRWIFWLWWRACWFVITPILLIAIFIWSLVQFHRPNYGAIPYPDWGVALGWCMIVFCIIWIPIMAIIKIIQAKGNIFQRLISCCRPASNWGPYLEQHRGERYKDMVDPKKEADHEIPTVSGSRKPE

[4] = AUC (0 to t) in NOD SCID nude mouse tumour xenografted with ZR-75-1 cells assessed as floxuridine; 5-fluoro-2-deoxyuridine AUC at 90 mg/kg, iv measured up to 24 hrs by HPLC-MS/MS analysis; format: ADME, organism-based, Neoplasm; settings: in vivo
[5] = Toxicity in NOD SCID nude mouse xenografted with human MIA PaCa-2 cells assessed as body weight at 90 mg/kg, iv for 20 days (reference value: 28.4 +/- 2.1g); format: organism-based; settings: in vivo, 480 h, time 20 day
thymidine phosphorylase = assay: Half life of compound in thymidine phosphorylase buffer at 300 uM by HPLC analysis; format: physicochemical
[6] = Half life of compound in human MDA-MB-231 cell homogenate; format: ADME, tissue-based
[7] = target: T2, Sodium- and chloride-dependent neutral and basic amino acid transporter B(0+) (Homo sapiens) (UniProt Q9UN76); assay: Substrate activity at SLC6A14 (unknown origin) expressed in Xenopus laevis oocytes assessed as increase in ABT0+ mediated drug uptake at 1 mM in presence of Cl- ion by HPLC analysis; format: cell-based; settings: Oocyte
T2 sequence (whole entry): T1 sequence (Q9UN76 whole entry)

[8] = Toxicity in NOD SCID nude mouse xenografted with human ZR-75-1 cells assessed as body weight at 90 mg/kg, iv for 20 days (reference value: 29.2 +/- 2.5g); format: organism-based; settings: in vivo, 480 h, time 20 day
[9] = Half life of compound in human MIA PaCa-2 cell homogenate; format: ADME, tissue-based
[10] = target: T3, Solute carrier family 15 member 1 (Homo sapiens, UniProt P46059); assay: Substrate activity at PEPT1 (unknown origin) expressed in MDCK cells assessed as PEPT1 mediated drug uptake at 0.5 mM incubated for 10 mins by HPLC analysis; format: ADME, cell-based; settings: 500 µM
T3 sequence (P46059 whole entry): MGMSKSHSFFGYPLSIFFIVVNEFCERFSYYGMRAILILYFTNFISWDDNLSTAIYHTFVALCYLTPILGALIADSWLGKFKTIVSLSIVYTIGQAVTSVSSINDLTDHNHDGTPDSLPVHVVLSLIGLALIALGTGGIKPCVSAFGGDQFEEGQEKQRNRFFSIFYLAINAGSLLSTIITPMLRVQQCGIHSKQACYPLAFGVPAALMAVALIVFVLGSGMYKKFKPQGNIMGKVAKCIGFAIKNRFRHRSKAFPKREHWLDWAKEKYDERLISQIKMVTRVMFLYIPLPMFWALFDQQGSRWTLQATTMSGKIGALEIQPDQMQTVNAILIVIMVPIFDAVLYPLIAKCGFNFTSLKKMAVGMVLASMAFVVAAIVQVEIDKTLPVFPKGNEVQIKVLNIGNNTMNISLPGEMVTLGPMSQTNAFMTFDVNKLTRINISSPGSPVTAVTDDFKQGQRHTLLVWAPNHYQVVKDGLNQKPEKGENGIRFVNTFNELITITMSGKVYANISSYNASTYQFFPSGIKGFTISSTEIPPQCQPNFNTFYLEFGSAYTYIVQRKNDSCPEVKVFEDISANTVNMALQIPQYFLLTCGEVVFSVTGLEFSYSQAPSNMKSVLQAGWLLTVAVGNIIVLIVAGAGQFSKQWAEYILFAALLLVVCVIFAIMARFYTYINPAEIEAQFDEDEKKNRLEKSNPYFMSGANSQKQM

[11] = Cmax in NOD SCID nude mouse tumour xenografted with ZR-75-1 cells assessed as floxuridine; 5-fluoro-2-deoxyuridine concentration at 90 mg/kg, iv measured up to 24 hrs by HPLC-MS/MS analysis; format: ADME, organism-based, Neoplasm; set-up: route intravenous, dose 90 mg/kg, time <=24; settings: in vivo
MDA-MB-231 [12] = assay: Potency index, ratio of FUdR GI50 to test compound GI50 for growth inhibition of human MDA-MB-231 cells; format: functional
MDA-MB-231 [13] = assay: Antitumour activity against human MDA-MB-231 cells xenografted in NOD SCID nude mouse assessed as tumour inhibition at 90 mg/kg, iv administered for 20 days measured every 2 day by caliper method relative to control; format: functional; settings: MDA-MB-231, iv, 480 h, time 20 day
[14] = Half life of compound in PBS buffer at pH 7.4 at 200 uM by HPLC analysis; format: physicochemical
[15] = Cmax in NOD SCID nude mouse plasma xenografted with ZR-75-1 cells assessed as fluorouracil at 90 mg/kg, iv measured up to 24 hrs by HPLC-MS/MS analysis; format: ADME, organism-based; set-up: route intravenous, dose 90 mg/kg, time <=24; settings: in vivo
[16] = Drug uptake in MDCK cells incubated for 10 mins by HPLC analysis; format: ADME, cell-based, Canis lupus familiaris; settings: dog, 500 µM, dose 0.5 mM
[17] = target: T1, Sodium- and chloride-dependent neutral and basic amino acid transporter B(0+); assay: Substrate activity at SLC6A14 (unknown origin) expressed in Xenopus laevis oocytes assessed as inhibition of glycine uptake incubated for 10 mins by HPLC/MS/MS analysis; format: cell-based, Oocyte
[18] = AUC (0 to t) in NOD SCID nude mouse plasma xenografted with ZR-75-1 cells at 90 mg/kg, iv measured up to 24 hrs by HPLC-MS/MS analysis; format: ADME, organism-based; set-up: route intravenous, dose 90 mg/kg, time <=24

half-life [1]: 13.4 min | Drug uptake [3]: 2.97 nmol/mg/min | AUCt [4]: 4600.1 ng·h/g | half-life at 300 µM (thymidine phosphorylase): 299 min | half-life [6]: 11.1 min | Activity [7]: Active | half-life [9]: 16.4 min | Drug uptake [10]: < 0.04 nmol/mg/min | Cmax [11]: 700.2 ng/g | half-life at 200 µM [14]: 286 min | Cmax [15]: 67.8 ng/mL | Drug uptake [16]: < 0.04 nmol/mg/min | IC50 [17]: 820 µM | AUC(0-t) at 24 h [18]: 5070 ng·h/mL
SMILES: N[C@@H](CC(=O)OC[C@H]1O[C@@H](n2cc(F)c(=O)[nH]c2=O)C[C@@H]1O)C(=O)O
Activity [2]: 27.6 g | inhibition in vivo at 90 mg/kg (ZR-75-1): 58.6% | Activity [5]: 26.3 g | Activity [8]: 26.8 g | RatioGI50 (MDA-MB-231 [12]): 7 | inhibition in vivo at 90 mg/kg (MDA-MB-231 [13]): 33.8%
